The source made the active and inactive calls. The calls are words filed in the database; no cut-off is given here.

The first assay concerns Human immunodeficiency virus 1. Nature of the assay: Binding affinity to HIV1 5'-[32P]HIV96 RNA assessed as viral RNA cleavage at 1 mM measured after 3 and 7 hrs relative to control.
Consider `N[C@@H](CO)C(=O)NCCCCCCCCCCCCNC(=O)[C@@H](N)CO`, for which the Activity worked out at 28%.
For the molecule `NCCCC[C@H](N)C(=O)NCCCCCC(=O)N[C@@H](CO)C(=O)NCCCOCCCCOCCCNC(=O)[C@H](CO)NC(=O)CCCCCNC(=O)[C@@H](N)CCCCN`, the Activity came to 10%.
Same read-out and setting: for `NCCCC[C@H](NC(=O)CCc1c[nH]cn1)C(=O)NCCCOCCCCOCCCNC(=O)[C@H](CCCCN)NC(=O)CCc1c[nH]cn1` the value was 44%; for `N=C(N)NCCC[C@H](N)C(=O)NCCCOCCCCOCCCNC(=O)[C@@H](N)CCCNC(=N)N`, 38%; for `NCCCC[C@H](N)C(=O)NCCCCCCCCCCCCNC(=O)[C@@H](N)CCCCN`, 24%.
Still for that read-out and setting: next, `NCCCC[C@H](N)C(=O)NCCCOCCCCOCCCNC(=O)[C@@H](N)CCCCN`: 19%; `N[C@@H](CCC(=O)O)C(=O)NCCCCCC(=O)N[C@@H](CO)C(=O)NCCCOCCCCOCCCNC(=O)[C@H](CO)NC(=O)CCCCCNC(=O)[C@@H](N)CCC(=O)O`: 23%.

Another assay deals with Human immunodeficiency virus 1. Nature of the assay: Binding affinity to HIV1 5'-[32P]HIV96 RNA assessed as time of half viral RNA cleavage of at 1 mM.
Regarding `N[C@@H](CO)C(=O)NCCCCCCCCCCCCNC(=O)[C@@H](N)CO`, the TIME was 6 h.
Still for that read-out and setting: for `NCCCC[C@H](N)C(=O)NCCCCCC(=O)N[C@@H](CO)C(=O)NCCCOCCCCOCCCNC(=O)[C@H](CO)NC(=O)CCCCCNC(=O)[C@@H](N)CCCCN` the value was over 24 h.
On the same count and under the same terms, for `NCCCC[C@H](NC(=O)CCc1c[nH]cn1)C(=O)NCCCOCCCCOCCCNC(=O)[C@H](CCCCN)NC(=O)CCc1c[nH]cn1` the value was 8 h; for `N=C(N)NCCC[C@H](N)C(=O)NCCCOCCCCOCCCNC(=O)[C@@H](N)CCCNC(=N)N`, 10 h.
On the same count and under the same terms, next, `NCCCC[C@H](N)C(=O)NCCCCCCCCCCCCNC(=O)[C@@H](N)CCCCN`: 7 h; `NCCCC[C@H](N)C(=O)NCCCOCCCCOCCCNC(=O)[C@@H](N)CCCCN`: 20 h; `N[C@@H](CCC(=O)O)C(=O)NCCCCCC(=O)N[C@@H](CO)C(=O)NCCCOCCCCOCCCNC(=O)[C@H](CO)NC(=O)CCCCCNC(=O)[C@@H](N)CCC(=O)O`: 17 h.

The next assay concerns Human immunodeficiency virus 1. Kind of assay: Binding affinity to HIV1 5'-[32P]ON21 RNA in Tris-Hcl buffer assessed as RNA cleavage rate constant for 5 hrs at pH 7.5.
Regarding `NCCCC[C@H](NC(=O)CCc1c[nH]cn1)C(=O)NCCCOCCCCOCCCNC(=O)[C@H](CCCCN)NC(=O)CCc1c[nH]cn1`, the result was Active.

Another assay deals with Human immunodeficiency virus 1. Kind of assay: Binding affinity to HIV1 5'-[32P]ON21 RNA assessed as viral RNA cleavage at 1 mM measured after 3 and 7 hrs relative to control.
In the case of `N[C@@H](CO)C(=O)NCCCCCCCCCCCCNC(=O)[C@@H](N)CO`, the Activity is 13%.
On to `NCCCC[C@H](N)C(=O)NCCCCCC(=O)N[C@@H](CO)C(=O)NCCCOCCCCOCCCNC(=O)[C@H](CO)NC(=O)CCCCCNC(=O)[C@@H](N)CCCCN`, for which the Activity amounted to 11%.
Still for that read-out and setting: next, `NCCCC[C@H](NC(=O)CCc1c[nH]cn1)C(=O)NCCCOCCCCOCCCNC(=O)[C@H](CCCCN)NC(=O)CCc1c[nH]cn1`: 29%.
On the same count and under the same terms, next, `N=C(N)NCCC[C@H](N)C(=O)NCCCOCCCCOCCCNC(=O)[C@@H](N)CCCNC(=N)N`: 25%; `NCCCC[C@H](N)C(=O)NCCCCCCCCCCCCNC(=O)[C@@H](N)CCCCN`: 8%; `NCCCC[C@H](N)C(=O)NCCCOCCCCOCCCNC(=O)[C@@H](N)CCCCN`: 8%.
Still for that read-out and setting: next, `N[C@@H](CCC(=O)O)C(=O)NCCCCCC(=O)N[C@@H](CO)C(=O)NCCCOCCCCOCCCNC(=O)[C@H](CO)NC(=O)CCCCCNC(=O)[C@@H](N)CCC(=O)O`: 18%.

Another assay has as its system Human immunodeficiency virus 1. Kind of assay: Binding affinity to HIV1 5'-[32P]HIV96 RNA assessed as viral RNA cleavage rate constant at 1 mM.
Take `N[C@@H](CO)C(=O)NCCCCCCCCCCCCNC(=O)[C@@H](N)CO`: the K is 0.079 h⁻¹.
Still for that read-out and setting: next, `NCCCC[C@H](N)C(=O)NCCCCCC(=O)N[C@@H](CO)C(=O)NCCCOCCCCOCCCNC(=O)[C@H](CO)NC(=O)CCCCCNC(=O)[C@@H](N)CCCCN`: 0.005 h⁻¹.
Same read-out and setting: for `NCCCC[C@H](NC(=O)CCc1c[nH]cn1)C(=O)NCCCOCCCCOCCCNC(=O)[C@H](CCCCN)NC(=O)CCc1c[nH]cn1` the value was 0.076 h⁻¹; for `N=C(N)NCCC[C@H](N)C(=O)NCCCOCCCCOCCCNC(=O)[C@@H](N)CCCNC(=N)N`, 0.062 h⁻¹.
On the same count and under the same terms, for `NCCCC[C@H](N)C(=O)NCCCCCCCCCCCCNC(=O)[C@@H](N)CCCCN` the value was 0.07 h⁻¹; for `NCCCC[C@H](N)C(=O)NCCCOCCCCOCCCNC(=O)[C@@H](N)CCCCN`, 0.011 h⁻¹; for `N[C@@H](CCC(=O)O)C(=O)NCCCCCC(=O)N[C@@H](CO)C(=O)NCCCOCCCCOCCCNC(=O)[C@H](CO)NC(=O)CCCCCNC(=O)[C@@H](N)CCC(=O)O`, 0.033 h⁻¹.

The test system of a further assay is Human immunodeficiency virus 1. Nature of the assay: Binding affinity to HIV1 5'-[32P]ON21 RNA in cacodylate buffer assessed as RNA cleavage rate constant for 3 hrs at pH 6.2 to 7.2.
Turning to `NCCCC[C@H](NC(=O)CCc1c[nH]cn1)C(=O)NCCCOCCCCOCCCNC(=O)[C@H](CCCCN)NC(=O)CCc1c[nH]cn1`, the result was inactive.

Source of the values: ChEMBL document CHEMBL3763058, “Design, RNA cleavage and antiviral activity of new artificial ribonucleases derived from mono-, di- and tripeptides connected by linkers of different hydrophobicity” (Bioorg Med Chem, 2016).
